# Reference: US20110105579A1, “Plant Health Composition” (priority 2008, published 2011)
# Legend:
# [1] = test system: Corn (Zea maydis var. M314A10) seedlings; test: Cold tolerance of corn seedlings after seed treatment (seedling mortality after exposure to -5° C.); format: in vivo; conditions: for Observed efficacy (%) of cold tolerance GS 10 (3 hrs): % decrease of seedling mortality vs untreated control; for Observed efficacy (%) of cold tolerance GS 10 (3 hrs) / Seedling mortality (mean %) GS 10 (3 hrs): S8 2.5 g a.i./100 kg seed, Ia 1 g a.i./100 kg seed; for Seedling mortality (mean %) GS 10 (3 hrs): corn seed treatment, -5° C. for 3 hrs at growth stage 10, recorded 3 days after cold treatment, control 27
# Experimental: Corn (Zea maydis var. M314A10) seeds were treated in a Hege 11 seed treater in a total slurry volume of 1000 ml/100 kg seed. Treatments comprised:
# 1) Water (control) 2) Pyraclostrobin (S8) (2.5 g a.i./100 kg); 3) Compound Ia (1 g a.i./100 kg); 4) Pyraclostrobin (S8) (2.5 g a.i./100 kg)+compound Ia (1 g a.i./100 kg).
# CF Clear Binder (19 ml/100 kg seed) and color coat blue (13 ml/100 kg seed) were added to all treatments including the check. Following seed treatment, seeds were allowed to dry overnight. Seeds were planted in plastic pots (10 cm×10 cm×12 cm). Experiments were conducted using natural soil (sandy loam soil, source NC, U.S.A.). Pots were placed inside the greenhouse in a completely randomized design. Seedlings were grown at 25° C., until they reached growth stages 10 (first leaf through coleoptile, BBCH Scale). At growth stages 10, seedlings were placed in a completely randomized design in a low temperature incubator (Thermo Electron Corporation) and exposed to −5° C. during 3 hrs. At the time of cold exposure, pots were at field capacity. Percentage of seedling mortality for each treatment was recorded 3 days after the cold treatment.
# The efficacy of induced cold tolerance (E) was calculated as % decrease of seedling mortality in the treatments compared to the untreated control:
# a corresponds to the seedling mortality (%) of the treated plants and b corresponds to the seedling mortality (%) of the untreated (control) plants
# The expected efficacy of the combination of the active compounds were estimated using Colby's formula (Colby, S. R., Calculating synergistic and antagonistic responses of herbicide combinations, Weeds, 15, pp. 20-22, 1967) and compared with the observed efficacy.
# E=x+y−x·y/100 Colby's formula • E expected efficacy, expressed in % of the untreated control, when using the mixture of the active compounds A and B at the concentrations a and b • x efficacy, expressed in % of the untreated control, when using the active ingredient A at the concentration a • y efficacy, expressed in % of the untreated control, when using the active ingredient B at the concentration b
# [2] = test system: Soybeans, variety TMG 103 RR; test: Soybean field trial: crop emergence and crop establishment after seed treatment (plant count per 5 m row); format: in vivo; conditions: for Observed efficacy (%) 12 days after planting / Observed efficacy (%) 33 days after planting: increase in number of plants vs control, S6 75, Ia 50 g a.i./100 kg seed; for Number of plants per 5 m distance (mean) 12 days after planting / Number of plants per 5 m distance (mean) 33 days after planting: soybean seed treatment, S6 75 g a.i./100 kg seed, Ia 50 g a.i./100 kg seed; for Number of plants per 5 m distance (mean) 12 days after planting: crop emergence, control 35; for Number of plants per 5 m distance (mean) 33 days after planting: crop establishment, control 34
# Experimental: Soybeans were grown in 2008 in the Rondonopolis region, Mato Grosso, Brazil. The variety TMG 103 RR was planted at a seeding rate of 45 kg/ha. The trial was setup as randomized bloc design with 4 replications. Plot size was 10 m^2. The soybean seed was treated prior to planting with either orysastrobin (S6), compound Ia or was left untreated (Control). Compound Ia was used as an FS formulation (100 g a.i./L) with a dose rate of 500 ml/100 kg seed (50 g a.i./100 kg). Orysastrobin (S6) was applied as an FS formulation (250 g a.i./L) with a dose rate of 300 ml per 100 kg seed (75 g a.i./100 kg). In the combination treatments of compound Ia and orysastrobin, both formulations were applied in a sequence. The formulations were applied in a total slurry volume of […] of seed.
# The observed efficacy (E) of the compounds on crop emergence and crop establishment as an indicator of plant vitality and plant vigor was determined by counting the plants in a row on a distance of 5 m at 12 and 33 days after planting.
# The efficacy of the fungicidal treatments was calculated as the increase in the number of plants in the treatments compared to the control (%):
# a corresponds to the number in the treated and b corresponds to the number of plants in the untreated (control) plots
# The expected efficacy of the combination of the active compounds was estimated using Colby's formula (see example 1 above)
Structure (SMILES),Observed efficacy (%) of cold tolerance GS 10 (3 hrs) [1] [%],Seedling mortality (mean %) GS 10 (3 hrs) [1],"seedling mortality, as an indicator of plant vigor (in words) ([1]; vs water control, table 4)",Observed efficacy (%) 12 days after planting [2] [%],Observed efficacy (%) 33 days after planting [2] [%],Number of plants per 5 m distance (mean) 12 days after planting [2],Number of plants per 5 m distance (mean) 33 days after planting [2],"number of plants, as an indicator of plant vigor (in words) ([2]; vs untreated control, table 6)"
"Cn1cc(C(=O)Nc2ccccc2-c2cc(F)c(F)c(F)c2)c(C(F)F)n1 [Compound Ia, N-(3′,4′,5′-trifluorobiphenyl-2-yl)-3-difluoromethyl-1-methyl-1H-pyrazole-4-carboxamide]",15,23 (b) %,significantly decreased,40.0,32.3,49,45,significantly increased
"CNC(=O)/C(=N/OC)c1ccccc1CO/N=C(C)/C(=N/OC)C(/C)=N/OC [Orysastrobin (S6), orysastrobin, reference compound]",–,–,–,57.1,52.9,55,52,–
"COC(=O)N(OC)c1ccccc1COc1ccn(-c2ccc(Cl)cc2)n1 [Pyraclostrobin (S8), pyraclostrobin, reference compound]",22,21 (c) %,–,–,–,–,–,–
